The values that follow come from patent US20120214811A1, “RAF INHIBITOR COMPOUNDS AND METHODS OF USE THEREOF” (priority 2009, published 2012).

SMILES strings stand for the structures.

Assay [1] deals with T1, V600E full-length B-Raf (Homo sapiens, UniProt P15056, V600E).
T1 construct: 1 μM FSBA-MEK and 20 nM V600E full-length B-Raf; made in house; host or cells: Sf9 insect cells (baculovirus)
The assay is described as follows: B-Raf IC50 assay (incorporation of radio labeled phosphate from [γ-33P]ATP into FSBA-modified wild-type MEK). The following applies: Example A assay; 4 μM ATP, 20 nM V600E full-length B-Raf, 60-minute incubation at 22° C.; read-out: BRAF V600E IC50. In kind it is biochemical. The source says: Determining the activity of Raf in the sample is possible by a number of direct and indirect detection methods (US 2004/0082014). Activity of human recombinant B-Raf protein may be assessed in vitro by assay of the incorporation of radio labeled phosphate to recombinant MAP kinase (MEK), a known physiologic substrate of B-Raf, according to US 2004/0127496 and WO 03/022840. The activity/inhibition of V600E full-length B-Raf was estimated by measuring the incorporation of radio labeled phosphate from [γ-^33]ATP into FSBA-modified wild-type MEK (see Example A).
Activity of human recombinant B-Raf protein may be assessed in vitro by assay of the incorporation of radio labeled phosphate to recombinant MAP kinase (MEK), a known physiologic substrate of B-Raf, according to US 2004/0127496 and WO 03/022840. Catalytically active human recombinant B-Raf protein is obtained by purification from sf9 insect cells infected with a human B-Raf recombinant baculovirus expression vector.
The activity/inhibition of V600E full-length B-Raf was estimated by measuring the incorporation of radio labeled phosphate from [γ-^33P]ATP into FSBA-modified wild-type MEK. The 30-μL assay mixtures contained 25 mM Na Pipes, pH 7.2, 100 mM KCl, 10 mM MgCl2, 5 mM β-glycerophosphate, 100 μM Na Vanadate, 4 μM ATP, 500 nCi [γ-^33P]ATP, 1 μM FSBA-MEK and 20 nM V600E full-length B-Raf. Incubations were carried out at 22° C. in a Costar 3365 plate (Corning). Prior to the assay, the B-Raf and FSBA-MEK were preincubated together in assay buffer at 1.5× (20 μL of 30 nM and 1.5 μM, respectively) for 15 minutes, and the assay was initiated by the addition of 10 μL of 10 μM ATP. Following the 60-minute incubation, the assay mixtures were quenched by the addition of 100 μL of 25% TCA, the plate was mixed on a rotary shaker for 1 minute, and the product was captured on a Perkin-Elmer GF/B filter plate using a Tomtec Mach III Harvester. After sealing the bottom of the plate, 35 μL of Bio-Safe II (Research Products International) scintillation cocktail were added to each well and the plate was top-sealed and counted in a Topcount NXT (Packard).

Assay [2] concerns basal ERK1/2 phosphorylation. The assay is described as follows: Cellular ERK 1/2 phosphorylation assay in Malme-3M cells. In kind it is cell-based. The following applies: Homo sapiens, 1 hour incubation, pERK signal normalized to total ERK, read-out: IC50, inhibition of basal ERK1/2 phosphorylation. As for the experimental part: Inhibition of basal ERK1/2 phosphorylation was determined by the following in vitro […], which comprises incubating cells with a compound of Formula II for 1 hour and quantifying the fluorescent pERK signal on fixed cells and normalizing to total ERK signal.
Materials and Methods: Malme-3M cells were obtained from ATCC and grown in RPMI-1640 supplemented with 10% fetal bovine serum. Cells were plated in 96-well plates at 24,000 cells/well and allowed to attach for 16-20 hours at 37° C., 5% CO2. The media was removed, and DMSO-diluted compounds were added in RPMI-1640 at a final concentration of 1% DMSO. The cells were incubated with the compounds for 1 hour at 37° C., 5% CO2. The cells were washed with PBS and fixed in 3.7% formaldehyde in PBS for 15 minutes. This was followed by washing in PBS/0.05% Tween20 and permeabilizing in −20° C. 100% MeOH for 15 minutes. Cells were washed in PBS/0.05% Tween20 then blocked in Odyssey blocking buffer (LI-COR Biosciences) for 1 hour. Antibodies to phosphorylated ERK (1:400, Cell Signaling #9106, monoclonal) and total ERK (1:400, Santa Cruz Biotechnology #sc-94, polyclonal) were added to the cells and incubated 16-20 hours at 4° C. […] Cells were then washed and analyzed for fluorescence at both wavelengths using the Odyssey Infrared Imaging System (LI-COR Biosciences). […]

T1 sequence (P15056 whole entry V600E): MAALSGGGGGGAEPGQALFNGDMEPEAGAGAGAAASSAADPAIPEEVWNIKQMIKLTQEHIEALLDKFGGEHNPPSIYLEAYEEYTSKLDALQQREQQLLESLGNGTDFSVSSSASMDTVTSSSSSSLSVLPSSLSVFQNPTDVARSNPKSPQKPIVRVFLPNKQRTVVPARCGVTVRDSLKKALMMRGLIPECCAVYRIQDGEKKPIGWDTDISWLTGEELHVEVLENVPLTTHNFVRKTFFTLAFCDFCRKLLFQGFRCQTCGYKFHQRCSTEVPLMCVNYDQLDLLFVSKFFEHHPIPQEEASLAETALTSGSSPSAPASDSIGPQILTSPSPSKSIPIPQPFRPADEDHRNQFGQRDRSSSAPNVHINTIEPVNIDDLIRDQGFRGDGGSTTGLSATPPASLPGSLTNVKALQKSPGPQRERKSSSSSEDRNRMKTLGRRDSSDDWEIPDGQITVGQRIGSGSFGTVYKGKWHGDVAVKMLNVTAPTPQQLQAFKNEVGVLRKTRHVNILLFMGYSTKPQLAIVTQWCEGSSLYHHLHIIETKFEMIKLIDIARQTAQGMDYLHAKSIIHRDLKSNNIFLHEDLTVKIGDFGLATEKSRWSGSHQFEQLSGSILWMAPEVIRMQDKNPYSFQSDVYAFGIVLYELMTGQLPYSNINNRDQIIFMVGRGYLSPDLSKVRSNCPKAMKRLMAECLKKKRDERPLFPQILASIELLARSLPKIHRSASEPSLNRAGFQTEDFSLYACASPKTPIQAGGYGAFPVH

Take `CCCS(=O)(=O)Nc1ccc(F)c(NC(=O)Nc2cc(NCC)ncn2)c1F` [Example 1, Propane-1-sulfonic acid {3-[3-(6-ethylamino-pyrimidin-4-yl)-ureido]-2,4-difluoro-phenyl}-amide]: the IC50 in assay [1] amounted to 28 nM.
Regarding `CCCS(=O)(=O)Nc1ccc(F)c(NC(=O)Nc2cc(N)ncn2)c1F` [Example 2, N-(3-(3-(6-aminopyrimidin-4-yl)ureido)-2,4-difluorophenyl)propane-1-sulfonamide], the IC50 in assay [2] is about 438 nM; in assay [1], 142 nM.
For the compound `CCCS(=O)(=O)Nc1ccc(F)c(NC(=O)Nc2cc(NC)ncn2)c1F` [Example 3, N-(2,4-difluoro-3-(3-(6-(methylamino)pyrimidin-4-yl)ureido)phenyl)propane-1-sulfonamide], the IC50 in assay [1] is 31.2 nM.
Take `CCCS(=O)(=O)Nc1ccc(F)c(NC(=O)Nc2cc(NC(C)C)ncn2)c1F` [Example 4, N-(2,4-difluoro-3-(3-(6-(isopropylamino)pyrimidin-4-yl)ureido)phenyl)propane-1-sulfonamide]: in assay [1], the IC50 amounted to 165 nM.
`CCCS(=O)(=O)Nc1ccc(F)c(NC(=O)Nc2cc(NCCO)ncn2)c1F` [Example 5, N-(2,4-difluoro-3-(3-(6-(2-hydroxyethylamino)pyrimidin-4-yl)ureido)phenyl)propane-1-sulfonamide]: the IC50 in assay [1] came out at 63.5 nM.
On the same count and under the same terms, next, `CCCS(=O)(=O)Nc1ccc(F)c(NC(=O)Nc2cc(NCCN3CCOCC3)ncn2)c1F` [Example 6, N-(2,4-difluoro-3-(3-(6-(2-morpholinoethylamino)pyrimidin-4-yl)ureido)phenyl)propane-1-sulfonamide]: 535 nM; `CCCS(=O)(=O)Nc1ccc(F)c(NC(=O)Nc2ccncn2)c1F` [Example 7, Propane-1-sulfonic acid [2,4-difluoro-3-(3-pyrimidin-4-yl-ureido)-phenyl]-amide]: 1390 nM.
On to `CCCS(=O)(=O)Nc1ccc(F)c(NC(=O)Nc2cc(NC)ncn2)c1Cl` [Example 8, Propane-1-sulfonic acid {2-chloro-4-fluoro-3-[3-(6-methylamino-pyrimidin-4-yl)-ureido]-phenyl}-amide], for which the figures for the IC50 in assay [2] and in assay [1] were about 153 nM and 19.8 nM, respectively.
With `CCCS(=O)(=O)Nc1ccc(Cl)c(NC(=O)Nc2cc(NC)ncn2)c1F` [Example 9, N-4-Chloro-2-fluoro-3-(3-((6-(methylamino)pyrimidin-4-yl)ureido)phenyl)propane-1-sulfonamide], the IC50 in assay [1] was found to be 8.9 nM.
Turning to `CCCS(=O)(=O)Nc1ccc(Cl)c(NC(=O)Nc2cc(NCc3ccccc3)ncn2)c1F` [Example 10, N-(3-(3-(6-(Benzylamino)pyrimidin-4-yl)ureido)-4-chloro-2-fluorophenyl)propane-1-sulfonamide], in assay [1], the IC50 is 19.2 nM.
On the same count and under the same terms, for `CCCS(=O)(=O)Nc1ccc(F)c(NC(=O)N(C)c2ccncn2)c1F` [Example 11, Propane-1-sulfonic acid [2,4-difluoro-3-(3-methyl-3-pyrimidin-4-yl-ureido)-phenyl]-amide] the value was 1230 nM.
Same read-out and setting: next, `CCCS(=O)(=O)Nc1ccc(F)c(NC(=O)N(C)c2cc(Nc3ccn(C)n3)ncn2)c1F` [Example 12, Propane-1-sulfonic acid (2,4-difluoro-3-{3-methyl-3-[6-(1-methyl-1H-pyrazol-3-ylamino)-pyrimidin-4-yl]-ureido}-phenyl)-amide]: 59.1 nM; `CCCS(=O)(=O)Nc1ccc(F)c(NC(=O)N(C)c2cc(NC3CC3)ncn2)c1F` [Example 13, N-(3-(3-(6-(cyclopropylamino)pyrimidin-4-yl)-3-methylureido)-2,4-difluorophenyl)propane-1-sulfonamide]: 21.8 nM; `CCCS(=O)(=O)Nc1ccc(F)c(NC(=O)N(C)c2cc(NCC)ncn2)c1F` [Example 14, N-(3-(3-(6-(ethylamino)pyrimidin-4-yl)-3-methylureido)-2,4-difluorophenyl)propane-1-sulfonamide]: 25.6 nM.
In the case of `CCCS(=O)(=O)Nc1ccc(F)c(NC(=O)N(C)c2cc(N)ncn2)c1F` [Example 15, N-(3-(3-(6-aminopyrimidin-4-yl)-3-methylureido)-2,4-difluorophenyl)propane-1-sulfonamide], the IC50 in assay [1] was 83.3 nM.
Still for that read-out and setting: next, `CCCS(=O)(=O)Nc1ccc(F)c(NC(=O)N(C)c2cc(NCCO)ncn2)c1F` [Example 16, N-(2,4-difluoro-3-(3-(6-(2-hydroxyethylamino)pyrimidin-4-yl)-3-methylureido)phenyl) propane-1-sulfonamide]: 121 nM; `CCCS(=O)(=O)Nc1ccc(F)c(NC(=O)N(C)c2cc(NC)ncn2)c1F` [Example 17, N-(2,4-difluoro-3-(3-methyl-3-(6-(methylamino)pyrimidin-4-yl)ureido)phenyl)propane-1-sulfonamide]: 84.6 nM; `CCCS(=O)(=O)Nc1ccc(F)c(NC(=O)N(C)c2cc(NC3CCC3)ncn2)c1F` [Example 18, N-(3-(3-(6-(cyclobutylamino)pyrimidin-4-yl)-3-methylureido)-2,4-difluorophenyl)propane-1-sulfonamide]: 83.6 nM.
Same read-out and setting: next, `CCCS(=O)(=O)Nc1ccc(F)c(NC(=O)N(C)c2cc(NC3CCOC3)ncn2)c1F` (stereo not shown) [Example 19, N-(2,4-difluoro-3-(3-methyl-3-(6-(tetrahydrofuran-3-ylamino)pyrimidin-4-yl)ureido)phenyl)propane-1-sulfonamide]: 283 nM; `CCCS(=O)(=O)Nc1ccc(F)c(NC(=O)N(C)c2cc(NN)ncn2)c1F` [Example 20, N-(2,4-difluoro-3-(3-(6-hydrazinylpyrimidin-4-yl)-3-methylureido)phenyl) propane-1-sulfonamide]: 33.4 nM.
On the same count and under the same terms, for `CCCS(=O)(=O)Nc1ccc(F)c(NC(=O)N(C)c2cc(NC(C)C)ncn2)c1F` [Example 21, N-(2,4-difluoro-3-(3-(6-(isopropylamino)pyrimidin-4-yl)-3-methylureido)phenyl) propane-1-sulfonamide] the value was 132 nM; for `CCCS(=O)(=O)Nc1ccc(F)c(NC(=O)N(C)c2cc(NCCN3CCOCC3)ncn2)c1F` [Example 22, N-(2,4-difluoro-3-(3-methyl-3-(6-(2 morpholinoethylamino)pyrimidin-4-yl)ureido)phenyl)propane-1-sulfonamide], 616 nM.
For the compound `CCCS(=O)(=O)Nc1ccc(F)c(NC(=O)Nc2ncnc(Nc3ccc(F)cc3)n2)c1F` [Example 23, N-(2,4-Difluoro-3-(3-(4-(4-fluorophenylamino)-1,3,5-triazin-2-yl)ureido)phenyl)propane-1-sulfonamide], the IC50 in assay [1] was 13.4 nM.
Still for that read-out and setting: for `CCCS(=O)(=O)Nc1ccc(F)c(NC(=O)Nc2ncncn2)c1F` [Example 24, N-(3-(3-1,3,5-Triazin-2-ylureido)-2,4-difluorophenyl)propane-1-sulfonamide] the value was 122 nM; for `CCCS(=O)(=O)Nc1ccc(F)c(NC(=O)Nc2ncncc2-c2ccc(Cl)cc2)c1F` [Example 25], 288 nM; for `CCCS(=O)(=O)Nc1ccc(F)c(NC(=O)Nc2ncnc(NC)n2)c1F` [Example 26, N-(2,4-Difluoro-3-(3-(4-(methylamino)-1,3,5-triazin-2-yl)ureido)phenyl)propane-1-sulfonamide], 235 nM.
